Experiment: Human HepG2 cell viability assay in 384 well format
Type: toxicity, cell-based
Parameters: dose 125 nL, time 70.5 hour; concentration not given beside the values
Details: HepG2 cells, read-out: Inhibition

Compound | cytotoxicity at 70.5 h
CC(C)[C@H](NC(=O)NC1CCS(=O)(=O)C1)C(=O)Nc1cccnc1 (some centres undefined) | 9.45%
Cn1ccc2c(C(=O)N3CCC(C(N)=O)CC3)cccc21 | -2.97%
O=C(COc1coc(CN2CCCC2)cc1=O)NCc1ccccc1Cl | 3.62%
O=C(Cn1nc2c(cc1=O)CCCC2)N[C@@H](C(=O)O)c1ccccc1 | -3.48%
COc1ccc(C2CC(=O)Nc3c2cnn3C)cc1 (centres undefined) | 4.68%
CC(=O)c1cccc(NC(=O)COc2c(C)n(C)ccc2=O)c1 | -7.44%
O=C(COc1coc(CN2CCCCC2)cc1=O)Nc1ccc(Cl)cc1 | -3.76%
Cn1ncc2c1NC(=O)CC2c1ccc(O)cc1 (centres undefined) | 7.25%
Cc1n[nH]c2c1C(c1cnn(C)c1)SCC(=O)N2 (centres undefined) | -6.84%
CCn1c(=O)nc2n1C(=O)N(c1cccc(Cl)c1)C2 | -1.37%
COc1ccc(C2SC(C)=Nc3c2c(=O)[nH]n3C2CCCCC2)cc1O (centres undefined) | 2.14%
COCC(=O)NCCn1ccc2c(OC)cccc21 | -6.28%
CC(C)n1ncc2c1NC(=O)CC21C(=O)Nc2c(Cl)cc(Cl)cc21 (centres undefined) | -8.73%
CC(C)n1ncc2c1NC(=O)CSC2C(C)(C)C (centres undefined) | -2.79%
O=C(CCc1nc2cccnc2[nH]1)Nc1cccnc1 | -16.2%
CC(C)CC1SCC(=O)Nc2c1cnn2-c1ccc(F)cc1 (centres undefined) | -6.67%
O=C1CSC(c2ccc(O)c(Cl)c2)c2c(n(C3CCOCC3)[nH]c2=O)N1 (centres undefined) | 6.82%
O=C1CC(c2ccsc2)c2c(n(C3CCOCC3)[nH]c2=O)N1 (centres undefined) | 14.8%
COc1ccc(C(=O)NCCCn2ccnc2)c(OC)n1 | 39.9%
COc1ccc(OC)c(Sc2ncccc2C(=O)N(C)CCC#N)c1 | 5.96%
CN(C)c1ccc(C(=O)NCC2(c3ccccc3)CCOCC2)cc1 | -10.7%
COc1ccc(OC)c(NC(=O)N2CCCC2c2ccco2)c1 (centres undefined) | -12.9%
O=C(CSC1=NS(=O)(=O)c2cc(F)ccc2N1)c1ccc(Cl)cc1 | -17.3%

Compound | cytotoxicity at 70.5 h
COC(=O)c1cccc(C(=O)N2CCN(c3cccc(C)c3C)CC2)n1 | -14.1%
CCn1nc(C)c2ccn(CC(=O)NC3CCCC3)c(=O)c21 | -1.39%
CNC(=O)CSc1nc2c(cnn2Cc2ccc(F)cc2)c(=O)[nH]1 | 13.5%
COC(=O)CCc1c(C)nn(-c2nc(C)cc(=O)[nH]2)c1C | 36.4%
CN1C(=O)C(C)(C)COc2cc(NS(=O)(=O)c3ccccc3)ccc21 | 8.64%
CN1C(=O)C(C)(C)COc2cc(NS(=O)(=O)Cc3ccccc3)ccc21 | 9.19%
CCc1cc(=O)[nH]c2nnc(SCC(=O)OC)n12 | 9.93%
CCCNC(=O)CSc1nnc2[nH]c(=O)cc(CC)n12 | 11.1%
CCc1cnc2c(c1Nc1ccncc1)c(=O)n(C)c(=O)n2C | 20.3%
CCCNC(=O)Cn1nc(C(C)C)c2cnn(C(C)(C)C)c2c1=O | -0.765%
COc1cccc(CNC(=O)CC2CSc3ncc(C)c(=O)n32)c1 (centres undefined) | 10.1%
CCOC(=O)c1sc(NC(=O)CN(C)S(C)(=O)=O)c(C#N)c1C | 26.2%
O=c1nc(SCc2cccnc2)c2c(n1CCO)CCC2 | -7.99%
O=c1nc(SCc2ccncc2)c2c(n1CCO)CCCC2 | 14.9%
CCCc1nnsc1C(=O)NCC1CCN(c2ccccn2)CC1 | -6.19%
O=C(Cn1cnc(-c2ccccc2)cc1=O)Nc1ccncc1 | -9.96%
COCCNC(=O)CCc1c(C)nn(-c2nc(C)c(C)c(=O)[nH]2)c1C | -1.63%
COc1cccc(C(=O)NCC(O)c2cccs2)c1 (centres undefined) | -0.864%
O=C(NCC(O)c1cccs1)c1cccc(Cl)c1 (centres undefined) | -2.42%
Cc1ccc(N2CCN(C(=O)COc3nccc(C)n3)CC2)nn1 | 16%
O=C(NCC1(CO)CC1)c1cccc2ccccc12 | 2.2%
Cc1noc(C)c1CCC(=O)N1CCN(CCn2cccn2)CC1 | 14.6%
O=S(=O)(NCC1CCN(c2cnccn2)CC1)c1c(F)cccc1F | -9.72%

Compound | cytotoxicity at 70.5 h
CNc1cc(CCNC(=O)CC(C)C)nc(-c2ccccn2)n1 | -7.32%
CNc1cc(CCNS(=O)(=O)c2ccccc2)nc(-c2ccccn2)n1 | -14.6%
CNc1cc(CCNC(=O)C2CCCC2)nc(-c2ccccn2)n1 | -8.09%
CCC1c2cccn2CCN1S(=O)(=O)N1CCOCC1 (centres undefined) | 11.2%
CCOc1ccc([C@@H]2N[C@H](c3nccs3)Cc3ccsc32)cc1OC | -7.07%
COc1cccc([C@@H]2N[C@H](c3nccs3)Cc3ccsc32)c1OC | -12.9%
C=Cn1cc(CN2CCN(CC3(c4ccccc4)CC3)CC2)c(C)n1 | -2.78%
Cc1csc2c(C3CCN(CCOc4ccccc4F)CC3)nc(C)n12 | 18.2%
Cc1cc(-c2cc(N)c(=O)n(CC(=O)NC3CCCCC3)n2)c(C)o1 | -15.5%
Cn1ccnc1C(O)c1ccccc1N1CCN(Cc2ccsc2)CC1 (centres undefined) | -5.94%
CN1C[C@@H](C(=O)NC(C)(C)C)[C@@]2(COc3ccc(F)cc3C2=O)C1 | -1.75%
O=C(CC1CCCC1)N1CCC(c2noc(-c3ccccn3)n2)CC1 | 6.76%
CC(C)(C)C(=O)NCCc1cc2nc(-c3ccncc3)ccn2n1 | 1.86%
CN(C)Cc1cnc(C2CCN(C(=O)c3cccc(Cl)c3)C2)[nH]1 (centres undefined) | -3.59%
COc1ccccc1CN(C)Cc1ccnc(C2CCCO2)n1 (centres undefined) | -2.34%
Cc1noc(C)c1-c1cc(CCC2CN(CCC(N)=O)CCO2)ncn1 (centres undefined) | -2.2%
COCCC(=O)N1CCOCC(Cc2ccc3c(ccn3C)c2)C1 (centres undefined) | -6.26%
Cc1ccccc1C(=O)N1C[C@@H](O)[C@H](N2CCOCC2)C1 | -3.66%
Cc1cc(N(C)Cc2ncc(-c3ccccc3C(=O)O)s2)ncn1 | 16.7%
CC1(C(=O)N2CCOCC2)CN(CC2CCOCC2)CCO1 (centres undefined) | -0.606%
c1cc(CN2CCCCC2c2ccc(Nc3cnccn3)nc2)ccn1 (centres undefined) | -4.05%
CN1CCN(C(=O)CCn2nnc3ccccc32)CC(C(N)=O)C1 (centres undefined) | -1.08%
CNC(=O)C1CN(C(=O)c2ccncc2)CCN(S(C)(=O)=O)C1 (centres undefined) | 22.7%

Compound | cytotoxicity at 70.5 h
Cc1nccc(C2CN(Cc3ccc(-c4ccccc4C(=O)O)o3)C2)n1 | -2.56%
Cc1nc(C(=O)N2CCc3[nH]nc(Nc4ccccc4)c3C2)co1 | -1.67%
Cc1ccnc(C2(C)CCCN2S(=O)(=O)c2cccnc2)n1 (centres undefined) | -3.08%
Cc1ccnc(C2(C)CCCN2S(=O)(=O)c2c(C)noc2C)n1 (centres undefined) | 1.94%
Cc1ccnc(C2CN(Cc3ccc(-c4ccccc4C(=O)O)o3)C2)n1 | -0.616%
O=C(CCn1cccn1)N1CCC(c2nnc(-c3ccccn3)o2)CC1 | 3.01%
O=C(CC1CCCC1)N1CCC(c2nnc(-c3ccccn3)o2)CC1 | 31.3%
O=C(c1ccncc1)N1CCc2[nH]nc(Nc3ccccc3)c2C1 | 21.7%
Cc1cc(C(F)F)nn1C(C)C(=O)NCc1nccn1C (centres undefined) | -0.123%
CC(C)(C)Nc1c(C2CCN(C(=O)C3CC3)CC2)nc2ccccn12 | 17.8%
Cn1ncc(Cl)c1C(=O)NCCN1CCC(O)(c2ccc(F)cc2)CC1 | 5.46%
O[C@H]1CCN(CCCOc2ccccc2F)C[C@@]12CCCO2 | 18.1%
c1cc(C2CCN(c3cncnc3)CC2)ccn1 | 1.76%
CC(C)N1CCC(c2cnc(-c3cn[nH]c3)cn2)CC1 | 2.32%
O=C1N[C@H]2OCCC[C@H]2[C@H](c2ccc(C(=O)O)cc2)N1 | 12.6%
O=C(O)c1ccccc1-n1cc(CN2CCOC(c3cc[nH]n3)C2)cn1 (centres undefined) | -12.9%
CCC(=O)N1CCCCC1c1nc(O)c2c(n1)CN(S(C)(=O)=O)CC2 (centres undefined) | 12.1%
CCC(=O)N1CCCCC1c1nc(O)c2c(n1)CN(C(C)=O)CC2 (centres undefined) | -2.47%
Cn1cnc(NC(=O)C2CC(=O)N(c3cccc(F)c3)C2)n1 (centres undefined) | 18.3%
COc1ccc2c(c1)CC(C1CCOCC1)N(C(=O)c1cnccn1)C2 (centres undefined) | 0.645%
Cc1cc(C)nc(Nc2cc(C)nc(C3CCN(C(=O)CO)C3)n2)n1 (centres undefined) | -7.3%
CCCC(=O)N1CCCCC1c1nc(N(C)C)ncc1-c1cc(C)no1 (centres undefined) | -2.48%
Cc1nc(-c2ccc(C(=O)O)cc2)cc(C2CCCN(C(C)C)C2)n1 (centres undefined) | 9.4%

Compound | cytotoxicity at 70.5 h
CCOc1ccc(CC(=O)N2CCN(c3nccn3C)CC2)cc1 | -2.2%
O=C(Cc1ccc(F)cc1)N1CCN(CC(O)C2CC2)CC1 (centres undefined) | -1.1%
Cc1ncc2c(n1)C1(CCN(C(=O)C(C)C)CC1)OCC2 | -6.13%
Fc1cccc(F)c1Cn1c(C2CCCNC2)cc2cccnc21 (centres undefined) | -5.53%
Cc1nc2cc(-c3nccn3C)nn2c(N2CCCC(O)C2)c1C (centres undefined) | 0.494%
COCCn1c(=O)n(C)c(=O)c2ccc(C3CCC(CN)CC3)nc21 (centres undefined) | -6.32%
FC(F)(F)c1nc(C2CCCNC2)no1 (centres undefined) | -0.742%
Cc1nc(Cc2ccc(F)cc2)cc(C2COCCN2)n1 (centres undefined) | 2.37%
Cc1nc(NC2CCCCC2)cc(C2CCCNC2)n1 (centres undefined) | 26.4%
Cn1ccnc1CNC(=O)c1cnc(C2CCNCC2)cn1 | 28.1%
O[C@@H]1CN(Cc2ccc(F)cc2)CC[C@H]1NCc1ccccn1 | 15.4%
c1ccc(CNc2cc(C3CCCNC3)ccn2)nc1 (centres undefined) | 20.2%
COc1cccc(Nc2nc(C3CCCNC3)c3sc(C)c(C)n23)c1 (centres undefined) | -12%
COc1cccc(-c2noc(C3CCN(CC4CCCCC4)C3)n2)c1 (centres undefined) | 18.2%
OC(CN1CCN(Cc2ccc(F)cc2)CC1)C1CC1 (centres undefined) | -1.06%
OC(CN1CCN(Cc2ccc(F)c(F)c2)CC1)C1CC1 (centres undefined) | 0.728%
CN(C)c1cc(C2CCCNC2)ccn1 (centres undefined) | 4.83%
Cc1cccc(-c2noc(C)c2C(=O)NC2CCCOC2)c1 (centres undefined) | -10.9%
Cc1nc2sccn2c1CNC1(c2ccccc2F)CCCC1 | -8.91%
CN(C)CCCN(Cc1cnn(C)c1)Cc1ccco1 | -2.57%
CCC(CN1CCCC1)NC(=O)C1(c2cccc(F)c2)CC1 (centres undefined) | -6.19%
O=C(NCCc1ccccc1)C1CCC(Cn2cnnn2)CC1 (centres undefined) | -2.34%

Source: ChEMBL document CHEMBL3507680, “University of Dundee, Gates Library screen for HepG2 cell viability”
